Among the test systems are A498; BT-549; COLO 205; DU-145; HL-60; HOP-92; HT-29; Hs-578T; IGROV-1; KM12; MDA-MB-435; OVCAR-4; OVCAR-5; PC-3; RPMI-8226; RXF 393; SF-268; SK-MEL-28; SK-MEL-5; SR.
Holding throughout (assay): NCI tumour cell line growth inhibition, 48 h

Consider nine compounds from ChEMBL document CHEMBL1201862, “PubChem BioAssay data set” (2004).

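A five-concentration, 48-hour dose response in 96-well plates underlies each endpoint, interpolated linearly between surrounding concentrations. GI50: concentration for 50% inhibition of growth.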 Active and inactive are the calls of the source. Rule as the data show it: active = GI50 up to about 1.1 µM and inactive = higher.

Turning to `CCOC(=O)[C@H](O)[C@@H](O)C(=O)NCc1ccc(C(=O)c2ccccc2)cc1`, the GI50 in the assay with A498, in the assay with BT-549, with COLO 205, with DU-145, with HL-60 and in the assay on HOP-92 was > 100 µM (inactive) throughout. For the same compound, the GI50 in the assay on HT-29, in the assay on Hs-578T, in the assay on IGROV-1, in the assay with KM12, in the assay with MDA-MB-435 and with OVCAR-4 was > 100 µM (inactive) in each case. Also, the GI50 in the assay with OVCAR-5, with PC-3, in the assay on RPMI-8226, with RXF 393, in the assay on SF-268 and in the assay on SK-MEL-28 was > 100 µM (inactive) throughout. Moreover, the GI50 in the assay with SK-MEL-5 and in the assay with SR was > 100 µM (inactive) throughout.

`CCCCCCC(=O)OC[n+]1ccc(-c2c(COC(=O)NC(C)C)c(COC(=O)NC(C)C)c3n2CCC3)cc1`: the GI50 is 46.9 µM (inactive) in the assay on A498; > 91 µM (inactive) in the assay on BT-549; > 80.9 µM (inactive) with COLO 205; > 82.4 µM (inactive) in the assay with DU-145; 23.3 µM (inactive) with HL-60; 63.5 µM (inactive) in the assay on HOP-92. In addition, the GI50 in the assay with HT-29, with Hs-578T, with IGROV-1, in the assay on KM12, with MDA-MB-435 and in the assay on OVCAR-4 was > 100 µM (inactive) throughout. Moreover, the GI50 in the assay on OVCAR-5 is > 100 µM (inactive); in the assay on PC-3, > 90.8 µM (inactive); in the assay on RPMI-8226 it was 38.5 µM (inactive); with RXF 393, > 65.8 µM (inactive); with SF-268, 48.6 µM (inactive); in the assay with SK-MEL-28, > 100 µM (inactive). For the same compound, the GI50 in the assay on SK-MEL-5 was > 100 µM (inactive); in the assay on SR, 10 µM (inactive).

In the case of `Cc1cc(S(=O)(=O)N/C(=C(\C#N)C(=O)c2ccccc2)[n+]2ccc(N(C)C)cc2)c([S-])cc1Cl`, the GI50 in the assay with A498 was 32.4 µM (inactive); in the assay with BT-549, > 100 µM (inactive); in the assay with COLO 205, > 100 µM (inactive); in the assay on DU-145 it was > 10 µM (inactive); in the assay on HL-60 it was > 100 µM (inactive); in the assay with HOP-92, 0.33 µM (active). The GI50 is > 100 µM (inactive) in the assay on HT-29; > 100 µM (inactive) with Hs-578T; 88.3 µM (inactive) in the assay on IGROV-1; > 100 µM (inactive) with KM12; > 100 µM (inactive) in the assay on MDA-MB-435; 69.8 µM (inactive) with OVCAR-4. Further, the GI50 in the assay with OVCAR-5, in the assay with PC-3, with RPMI-8226, in the assay with RXF 393, in the assay on SF-268 and in the assay on SK-MEL-28 was > 100 µM (inactive) throughout. Further, the GI50 was > 100 µM (inactive) in the assay with SK-MEL-5 and 64.9 µM (inactive) in the assay on SR.

On to `O=C1CC(=O)c2c(N3CCCC3)sc(N3CCCC3)c21`, for which the GI50 with A498, in the assay on BT-549, with COLO 205, in the assay with DU-145, in the assay on HL-60 and in the assay on HOP-92 was > 100 µM (inactive) in each case. Also, the GI50 in the assay with HT-29, in the assay on Hs-578T, in the assay on IGROV-1, in the assay on KM12, with MDA-MB-435 and with OVCAR-4 was > 100 µM (inactive) throughout. Also, the GI50 in the assay with OVCAR-5, in the assay with PC-3, with RPMI-8226, with RXF 393, in the assay with SF-268 and in the assay with SK-MEL-28 was > 100 µM (inactive) each time. Besides, the GI50 in the assay on SK-MEL-5 and in the assay with SR was > 100 µM (inactive) each time.

In the case of `CC(=O)OCC1OC(O[C@H]2C=C[C@@H](C(=O)OCc3ccccc3)n3c(=O)n(-c4ccccc4)c(=O)n32)C(OC(C)=O)C(OC(C)=O)C1OC(C)=O` (stereo not given in full), the GI50 in the assay on A498 was 2.55 µM (inactive); in the assay with BT-549, 1.8 µM (inactive); in the assay on COLO 205 it was 2 µM (inactive); in the assay on DU-145 it was 2.61 µM (inactive); in the assay on HL-60 it was 0.262 µM (active); in the assay with HOP-92 it was 1.96 µM (inactive). In addition, the GI50 is 1.56 µM (inactive) with HT-29; 1.99 µM (inactive) in the assay on Hs-578T; 2.34 µM (inactive) with IGROV-1; 3.27 µM (inactive) in the assay on KM12; 2.07 µM (inactive) in the assay with MDA-MB-435; 2.54 µM (inactive) in the assay with OVCAR-4. The GI50 in the assay with OVCAR-5 was 2.23 µM (inactive); in the assay on PC-3, 3.69 µM (inactive); in the assay on RPMI-8226, 0.879 µM (active); in the assay on RXF 393, 2.24 µM (inactive); in the assay on SF-268 it was 1.78 µM (inactive); with SK-MEL-28, 1.86 µM (inactive). The GI50 in the assay on SK-MEL-5 was 1.14 µM (inactive); in the assay on SR, 1.3 µM (inactive).

Consider `NNC(=O)CSc1nnc(CCCCCCCCc2nnc(SCC(=O)NN)o2)o1`, for which the GI50 in the assay with A498, in the assay on BT-549, in the assay with COLO 205, with DU-145, in the assay on HL-60 and in the assay on HOP-92 was > 100 µM (inactive) throughout. In addition, the GI50 with HT-29, in the assay with Hs-578T, with IGROV-1, with KM12, with MDA-MB-435 and in the assay with OVCAR-4 was > 100 µM (inactive) throughout. The GI50 in the assay with OVCAR-5, in the assay on PC-3, in the assay on RPMI-8226, in the assay with RXF 393, in the assay with SF-268 and in the assay on SK-MEL-28 was > 100 µM (inactive) in each case. The GI50 with SK-MEL-5 and with SR was > 100 µM (inactive) in each case.

Turning to `CCN(CC)CCn1ncc2c3c(=O)c4cccnc4n(CCN(CC)CC)c3ccc21`, the GI50 with A498 is > 10 µM (inactive); with BT-549 it was > 10 µM (inactive); with COLO 205 it was 2.32 µM (inactive); in the assay on DU-145, > 10 µM (inactive); in the assay with HL-60 it was 8.2 µM (inactive); in the assay on HOP-92 it was > 10 µM (inactive). The GI50 with HT-29 was 3.51 µM (inactive); with Hs-578T, 8.67 µM (inactive); in the assay on IGROV-1 it was > 10 µM (inactive); in the assay on KM12, 6.19 µM (inactive); with MDA-MB-435, 6.21 µM (inactive); in the assay with OVCAR-4 it was 4.44 µM (inactive). For the same compound, the GI50 in the assay on OVCAR-5 is 9.12 µM (inactive); in the assay on PC-3 it was > 10 µM (inactive); in the assay with RPMI-8226 it was > 10 µM (inactive); in the assay with RXF 393 it was > 10 µM (inactive); in the assay with SF-268 it was 7.43 µM (inactive); in the assay on SK-MEL-28, > 10 µM (inactive). The GI50 is > 10 µM (inactive) in the assay with SK-MEL-5 and 6.98 µM (inactive) in the assay on SR.

`c1ccc(C(=NNc2cnc3ccccc3n2)c2ccccn2)cc1`: the GI50 in the assay on A498 is 20.9 µM (inactive); in the assay with BT-549, 8.18 µM (inactive); in the assay on COLO 205, 0.119 µM (active); with DU-145, 3.3 µM (inactive); with HL-60, 0.109 µM (active); in the assay with HOP-92 it was 5.6 µM (inactive). In addition, the GI50 in the assay with HT-29 is 0.048 µM (active); in the assay on Hs-578T, 12 µM (inactive); in the assay on IGROV-1, 1.75 µM (inactive); with KM12, 4.08 µM (inactive); in the assay with MDA-MB-435 it was 3.96 µM (inactive); with OVCAR-4 it was 3.89 µM (inactive). The GI50 in the assay on OVCAR-5 is 2.59 µM (inactive); in the assay on PC-3, 2.56 µM (inactive); with RPMI-8226, 2.02 µM (inactive); in the assay with RXF 393, 7.59 µM (inactive); in the assay with SF-268, 1.52 µM (inactive); with SK-MEL-28 it was 12.3 µM (inactive). The GI50 in the assay on SK-MEL-5 was 1.42 µM (inactive); in the assay with SR it was 1.01 µM (active).

Consider `Br[Se]c1ccccn1`, for which the GI50 in the assay on A498 is 17.9 µM (inactive); in the assay with BT-549 it was 18.9 µM (inactive); in the assay on COLO 205, 17.1 µM (inactive); with DU-145, 16.7 µM (inactive); in the assay with HL-60 it was 17.6 µM (inactive); in the assay on HOP-92 it was 18.5 µM (inactive). In addition, the GI50 in the assay on HT-29 was 25.3 µM (inactive); with Hs-578T, 18.7 µM (inactive); in the assay with IGROV-1 it was 17.5 µM (inactive); in the assay with KM12, 17.3 µM (inactive); with MDA-MB-435 it was 17.3 µM (inactive); in the assay on OVCAR-4, 16.9 µM (inactive). The GI50 in the assay with OVCAR-5 is 20.2 µM (inactive); in the assay with PC-3, 16.4 µM (inactive); in the assay on RPMI-8226 it was 23.8 µM (inactive); in the assay on RXF 393 it was 17.2 µM (inactive); with SF-268 it was 18.2 µM (inactive); with SK-MEL-28 it was 19.6 µM (inactive). Further, the GI50 in the assay with SK-MEL-5 was 15.6 µM (inactive); with SR it was 23.4 µM (inactive).
